Experimental data as given in PubChem BioAssay AID330 (DTP/NCI, 2004).
Several values for one entry are separate records, joined by “and”; a condition that tells them apart may be missing. Equal entries are not always repeated. Inconclusive results and toxic doses are left out.

System: P388 leukemia ip, CD2F1 mice, survival T/C
Test: NCI In Vivo Anticancer Drug Screen. Data for tumor model P388 Leukemia (intraperitoneal) in CD2F1 (CDF1) mice
Conditions: endpoint: median survival time, higher = longer survival
In short: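 Mice carrying the transplanted tumor received test compound or vehicle. Survival was recorded in each group, and the value is the treated-group measurement divided by that of the vehicle-treated control group.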

[1] = dose: 6.25 mg/kg/injection, schedule: Q01DX009 (ip), vehicle: saline
[2] = dose: 12.5 mg/kg/injection, schedule: Q01DX009 (ip), vehicle: saline
[3] = dose: 60.0 mg/kg/injection, schedule: Q01DX005 (ip), vehicle: saline with Tween-80
[4] = dose: 120.0 mg/kg/injection, schedule: Q01DX005 (ip), vehicle: saline with Tween-80
[5] = dose: 240.0 mg/kg/injection, schedule: Q01DX005 (ip), vehicle: saline with Tween-80
[6] = dose: 100.0 mg/kg/injection, schedule: Q04DX003 (ip), vehicle: saline
[7] = dose: 200.0 mg/kg/injection, schedule: Q04DX003 (ip), vehicle: saline
[8] = dose: 50.0 mg/kg/injection, schedule: Q01DX005 (ip), vehicle: saline with Tween-80
[9] = dose: 100.0 mg/kg/injection, schedule: Q01DX005 (ip), vehicle: saline with Tween-80
[10] = dose: 100.0 mg/kg/injection, schedule: Q01DX009 (ip), vehicle: saline with Tween-80
[11] = dose: 200.0 mg/kg/injection, schedule: Q01DX009 (ip), vehicle: saline with Tween-80
[12] = dose: 100.0 mg/kg/injection, schedule: Q04DX002 (ip), vehicle: saline with Tween-80
[13] = dose: 30.0 mg/kg/injection, schedule: Q01DX005 (ip), vehicle: Klucel (hydroxypropylcellulose) (HPC)
[14] = dose: 60.0 mg/kg/injection, schedule: Q01DX005 (ip), vehicle: Klucel (hydroxypropylcellulose) (HPC)
[15] = dose: 50.0 mg/kg/injection, schedule: Q01DX009 (ip), vehicle: saline with Tween-80

With Cc1ccc(S(=O)(=O)c2ccc(Sc3cccc[n+]3[O-])c3nonc23)cc1 the T/C [1] was 103 % of control, the T/C [2] was 116 % of control and the T/C (dose: 12.5 mg/kg/injection, schedule: Q01DX009 (ip), vehicle: suspension in saline) was 110 % of control. For the same molecule, the T/C (dose: 25.0 mg/kg/injection, schedule: Q01DX009 (ip), vehicle: saline) was 100 % of control, the T/C (dose: 25.0 mg/kg/injection, schedule: Q01DX009 (ip), vehicle: suspension in saline) was 121 % of control and the T/C (dose: 50.0 mg/kg/injection, schedule: Q01DX009 (ip), vehicle: saline) was 103 % of control.

With CSc1nc(NC2OC(CO)C(O)C(O)C2O)c(C=O)c(=O)n1C (configuration not stated) the T/C [3] was 100 % of control, the T/C [4] was 92 % of control and the T/C [5] was 91 % of control.

In the case of Cc1cc[n+](CCC(N)=O)cc1, the T/C [6] is reported as 100 % of control and the T/C [7] is reported as 100 % of control.

For C=CCc1c2[n+](cc3c(OC)c(OC)ccc13)CCc1cc3c(cc1-2)OCO3, the T/C (dose: 0.4 mg/kg/injection, schedule: Q01DX005 (ip), vehicle: saline) was 107 % of control and 92 % of control, the T/C (dose: 0.8 mg/kg/injection, schedule: Q01DX005 (ip), vehicle: saline) was 99 % of control and 111 % of control and the T/C (dose: 1.6 mg/kg/injection, schedule: Q01DX005 (ip), vehicle: saline) was 100 % of control and 103 % of control.

For NC(CCS)C(=O)O (configuration not stated), the T/C [8] was 90 % of control and the T/C [9] was 92 % of control.

For CCOC(=O)c1c(Nc2ccccc2O)oc2ccccc12, the T/C (dose: 100.0 mg/kg/injection, schedule: Q04DX003 (ip), vehicle: Klucel (hydroxypropylcellulose) (HPC)) was 98 % of control, the T/C (dose: 200.0 mg/kg/injection, schedule: Q04DX003 (ip), vehicle: Klucel (hydroxypropylcellulose) (HPC)) was 92 % of control and the T/C (dose: 400.0 mg/kg/injection, schedule: Q04DX003 (ip), vehicle: Klucel (hydroxypropylcellulose) (HPC)) was 95 % of control.

For O=C1c2ccccc2C(=O)N1CNc1cccc(NCN2C(=O)c3ccccc3C2=O)c1, the T/C [10] was 110 % of control, the T/C [11] was 95 % of control and the T/C (dose: 400.0 mg/kg/injection, schedule: Q01DX009 (ip), vehicle: saline with Tween-80) was 100 % of control.

With O=c1oc2c(O)c(O)cc3c(=O)oc4c(O)c(O)cc1c4c23 the T/C (dose: 50.0 mg/kg/injection, schedule: Q01DX009 (ip), vehicle: other) was 121 % of control, the T/C (dose: 50.0 mg/kg/injection, schedule: Q04DX003 (ip), vehicle: saline) was 100 % of control and the T/C (dose: 100.0 mg/kg/injection, schedule: Q01DX009 (ip), vehicle: other) was 123 % of control. The T/C [6] was 103 % of control, the T/C (dose: 200.0 mg/kg/injection, schedule: Q01DX009 (ip), vehicle: other) was 117 % of control and 123 % of control and the T/C [7] was 112 % of control. For the same molecule, the T/C (dose: 400.0 mg/kg/injection, schedule: Q01DX009 (ip), vehicle: other) was 102 % of control and 108 % of control.

CCCCCCCC[N+]1(CC)CCCCC1 was tested, and the T/C (dose: 3.12 mg/kg/injection, schedule: Q01DX009 (ip), vehicle: saline) was 104 % of control, the T/C [1] was 109 % of control and the T/C [2] was 109 % of control.

In the case of CC1(C)C2(C(N)=O)C(=O)NC(=O)C12C(=O)O (configuration not stated), the T/C (dose: 25.0 mg/kg/injection, schedule: Q04DX002 (ip), vehicle: saline with Tween-80) is reported as 95 % of control, the T/C (dose: 50.0 mg/kg/injection, schedule: Q04DX002 (ip), vehicle: saline with Tween-80) is reported as 104 % of control and the T/C [12] is reported as 103 % of control.

Cc1nc(N)nc2ccccc12 was tested, and the T/C (dose: 15.0 mg/kg/injection, schedule: Q01DX005 (ip), vehicle: Klucel (hydroxypropylcellulose) (HPC)) was 100 % of control, the T/C [13] was 100 % of control and the T/C [14] was 99 % of control.

With Cc1cccc(=O)[n-]1.Cc1cccc(=O)[n-]1.Cc1cccc(=O)[n-]1.Cc1cccc(=O)[n-]1.[Cu+].[Cu+].[Cu+].[Cu+] the T/C (dose: 12.5 mg/kg/injection, schedule: Q04DX002 (ip), vehicle: Klucel (hydroxypropylcellulose) (HPC)) was 108 % of control, the T/C (dose: 25.0 mg/kg/injection, schedule: Q04DX002 (ip), vehicle: Klucel (hydroxypropylcellulose) (HPC)) was 109 % of control and the T/C (dose: 50.0 mg/kg/injection, schedule: Q04DX002 (ip), vehicle: Klucel (hydroxypropylcellulose) (HPC)) was 100 % of control. The T/C (dose: 100.0 mg/kg/injection, schedule: Q04DX002 (ip), vehicle: Klucel (hydroxypropylcellulose) (HPC)) was 108 % of control.

In the case of CC1=C(Cl)C(=O)c2c(O)cccc2C1=O, the T/C (dose: 1.0 mg/kg/injection, schedule: Q01DX005 (ip), vehicle: Klucel + Tween-80) is reported as 91 % of control, the T/C (dose: 2.0 mg/kg/injection, schedule: Q01DX005 (ip), vehicle: Klucel + Tween-80) is reported as 94 % of control and the T/C (dose: 4.0 mg/kg/injection, schedule: Q01DX005 (ip), vehicle: Klucel + Tween-80) is reported as 97 % of control.

For O=C(C=C(C(F)(F)F)C(F)(F)F)c1c2ccccc2cc2ccccc12, the T/C (dose: 0.78 mg/kg/injection, schedule: Q01DX009 (ip), vehicle: DMSO) was 91 % of control, the T/C (dose: 1.56 mg/kg/injection, schedule: Q01DX009 (ip), vehicle: DMSO) was 98 % of control and the T/C (dose: 3.12 mg/kg/injection, schedule: Q01DX009 (ip), vehicle: DMSO) was 87 % of control and 89 % of control.

For CCC(=O)N(C)C(C)C(=O)OC1CC(=O)N(C)c2cc(cc(OC)c2Cl)CC(CBr)=C/C=C/C(OC)C2(O)CC(OC(=O)N2)C(C)C2OC12C (configuration not stated), the T/C (dose: 32.0 micrograms/kg/injection, schedule: Q01DX009 (ip), vehicle: saline + alcohol) was 152 % of control and the T/C (dose: 64.0 micrograms/kg/injection, schedule: Q01DX009 (ip), vehicle: saline + alcohol) was 150 % of control.

In the case of CC(=O)[C@@]1(O)CC[C@H]2[C@@H]3C[C@H](C)C4=CC(=O)CC[C@]4(C)[C@H]3[C@@H](O)C[C@@]21C, the T/C (dose: 66.0 mg/kg/injection, schedule: Q01DX009 (ip), vehicle: saline with Tween-80) is reported as 100 % of control, the T/C [10] is reported as 100 % of control and the T/C (dose: 150.0 mg/kg/injection, schedule: Q01DX009 (ip), vehicle: saline with Tween-80) is reported as 104 % of control.

In the case of CCCCOP(O)(=S)OCCCC, the T/C [12] is reported as 108 % of control, the T/C (dose: 100.0 mg/kg/injection, schedule: Q04DX003 (ip), vehicle: saline with Tween-80) is reported as 105 % of control and 100 % of control and the T/C (dose: 200.0 mg/kg/injection, schedule: Q04DX002 (ip), vehicle: saline with Tween-80) is reported as 104 % of control. The T/C (dose: 200.0 mg/kg/injection, schedule: Q04DX003 (ip), vehicle: saline with Tween-80) was 106 % of control and 100 % of control, the T/C (dose: 400.0 mg/kg/injection, schedule: Q04DX002 (ip), vehicle: saline with Tween-80) was 95 % of control and the T/C (dose: 400.0 mg/kg/injection, schedule: Q04DX003 (ip), vehicle: saline with Tween-80) was 101 % of control and 106 % of control.

For NNC(=S)NCCN1CCOCC1, the T/C (dose: 50.0 mg/kg/injection, schedule: Q01DX005 (ip), vehicle: saline) was 105 % of control, the T/C (dose: 100.0 mg/kg/injection, schedule: Q01DX005 (ip), vehicle: saline) was 105 % of control and the T/C (dose: 200.0 mg/kg/injection, schedule: Q01DX005 (ip), vehicle: saline) was 100 % of control.

CN=C([O-])c1c(=O)o[nH][n+]1-c1ccccc1 was tested, and the T/C [3] was 95 % of control, the T/C [4] was 98 % of control and the T/C [5] was 94 % of control.

For Cc1ccc(Oc2ccc([N+](=O)[O-])c3[nH]c4ccccc4c(=O)c23)cc1, the T/C [15] was 94 % of control, the T/C [10] was 111 % of control and the T/C [11] was 113 % of control.

For CC1=CCC2CN(CCN(C)C)CC2C1 (configuration not stated), the T/C [8] was 100 % of control and the T/C [9] was 99 % of control.

For O=C1CSC(c2ccco2)N1c1nncs1 (configuration not stated), the T/C [13] was 100 % of control, the T/C [14] was 100 % of control and the T/C (dose: 120.0 mg/kg/injection, schedule: Q01DX005 (ip), vehicle: Klucel (hydroxypropylcellulose) (HPC)) was 103 % of control. The T/C (dose: 240.0 mg/kg/injection, schedule: Q01DX005 (ip), vehicle: Klucel (hydroxypropylcellulose) (HPC)) was 108 % of control.

Cc1ccccc1N1C(=O)CC2(CCCC2)C1=O was tested, and the T/C [15] was 97 % of control, the T/C [10] was 113 % of control and the T/C [11] was 94 % of control.

CC(=O)C1SCC[S+]1C (configuration not stated) was tested, and the T/C (dose: 15.0 mg/kg/injection, schedule: Q01DX005 (ip), vehicle: saline) was 102 % of control, the T/C (dose: 30.0 mg/kg/injection, schedule: Q01DX005 (ip), vehicle: saline) was 102 % of control and the T/C (dose: 60.0 mg/kg/injection, schedule: Q01DX005 (ip), vehicle: saline) was 99 % of control and 106 % of control and 114 % of control.

In the case of O=P(c1ccccc1)(c1ccccc1)c1ccccc1.O=P(c1ccccc1)(c1ccccc1)c1ccccc1.O=P(c1ccccc1)(c1ccccc1)c1ccccc1.O=P(c1ccccc1)(c1ccccc1)c1ccccc1.[Cr+3].[O-][Cl+3]([O-])([O-])O, the T/C (dose: 100.0 mg/kg/injection, schedule: Q04DX003 (ip), vehicle: saline + Tween-80 + alcohol) is reported as 101 % of control and the T/C (dose: 200.0 mg/kg/injection, schedule: Q04DX003 (ip), vehicle: saline + Tween-80 + alcohol) is reported as 100 % of control.
